Key:
[1] = system: Rattus norvegicus; assay: Local anaesthetic activity in Rattus norvegicus Wistar (rat) sciatic nerve block model assessed as time duration of loss of motor activity at 1 % solution measured over 45 min post injection; assay type: functional
[2] = system: Mus musculus; assay: Local anaesthetic activity in sc dosed Mus musculus Swiss (mouse) tail assessed as loss of pain reflex measured with in 30 secs; assay type: functional, organism-based
[3] = system: Oryctolagus cuniculus; assay: Corneal anaesthetic activity in New Zealand Oryctolagus cuniculus (rabbit) assessed as inhibition of Frey's horse hair-induced blink reflex at 2 % solution relative to lidocaine; assay type: functional
[4] = system: Rattus norvegicus; assay: Local anaesthetic activity in Rattus norvegicus Wistar (rat) sciatic nerve block model assessed as time duration of loss of motor activity at 2 % solution measured until first sign of motor activity

Structure (SMILES)	IC50 [2]	Time [1]	inhibition (INH) [3]	Time [4]
CCN(CC)CC(=O)Nc1nc(-c2ccc(F)cc2Cl)cs1	23 mM	25 min	44.3%	45 min
CCN(CC)CC(=O)Nc1nnc(Cc2ccc(OC)cc2)s1	36 mM	77 min	54.2%	72 min
CCN(CC)CC(=O)Nc1nnc(Cc2ccc(F)cc2)s1	17 mM	90 min	88.3%	210 min
COc1ccc(Cc2nnc(NC(=O)CN3CCCCC3)s2)cc1	24 mM	35 min	34.8%	160 min
O=C(CN1CCOCC1)Nc1nc(-c2ccc(F)cc2Cl)cs1	32 mM	75 min	25.6%	150 min
COc1ccc(Cc2nnc(NC(=O)CN3CCOCC3)s2)cc1	47 mM	117 min	40.2%	63 min
CCN(CC)CC(=O)Nc1c(C)cccc1C.Cl	9.2 mM	65 min	–	117 min

Continued by falling IC50 [2], values first:

IC50 [2]	Structure (SMILES)	Time [1]	inhibition (INH) [3]	Time [4]
12.3 mM	O=C(CN1CCOCC1)Nc1nnc(Cc2ccc(F)cc2)s1	25 min	72.1%	50 min
7.2 mM	O=C(CN1CCCCC1)Nc1nc(-c2ccc(F)cc2Cl)cs1	40 min	42.6%	160 min
6.6 mM	O=C(CN1CCCCC1)Nc1nnc(Cc2ccc(F)cc2)s1	40 min	92.6%	180 min
